Common to all, as to format: cell-based
One experiment concerns primary human B cells. The experiment in a line: B cell activation assay (CD69 on anti-IgM stimulated B cells). Conditions: AUC of dose response curve (10 μM to 1 nM) of CD69 MFI normalized to DMSO control. A digest of the protocol: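 Negatively selected PBMC-derived B cells (>95% CD20+) treated with Cbl-b inhibitors from 10 μM to 1 nM (DMSO <0.5%) and stimulated with anti-IgM for 20 h at 37° C. CD69 MFI on CD20+ IgD+ cells by flow cytometry; dose-response AUC normalized to DMSO plus 2.5 μg/mL anti-IgM-F(ab′)2, binned A-D.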

In the next experiment the test system is anergic human T-cells. The experiment in a line: Anergic T-cell activation assessed by IFNγ secretion (ionomycin-induced anergy). Conditions: anergic T-cells re-challenged with anti-CD3 and anti-CD28 for 24 hours, read-out: IFNγ Fold change from baseline. An excerpt:
Peripheral blood mononuclear cells (PBMC) were obtained either: 1) by using Ficoll-Paque™ (GE Healthcare) for separation of peripheral blood hematopoietic cells from buffy coats of healthy human donors; or 2) directly from LeukoPak donations. Total human primary T-cells were isolated from the PBMCs utilizing negative selection with commercial kits following the manufacturer's protocol (Miltenyi Catalog #130-096-535 (i.e., cocktail of antibodies against surface markers CD14, CD15, CD16, CD19, CD34, CD36, CD56, CD123 and CD235a were incubated with the PBMCs before passing the samples by magnetic beads for removal of cells expressing those surface markers) or StemCells Catalog #17951) to yield >95% CD3+ cells assessed by flow cytometry. The cells were activated with immobilized anti-CD3 antibody (OKT3) and soluble anti-CD28 antibody (28.2) for two days at which time they are washed and allowed to rest for three days in the absence of stimulation. They were then treated with ionomycin (Sigma) for 18-24 hours to induce anergy. Following two washes to remove the ionomycin from the samples, Cbl-b inhibitor compounds were added to the cells at the indicated concentrations (e.g. 10, 1.11 and 0.37 μM) and incubated for 1 hour. The cells were then re-challenged with anti-CD3 antibody and anti-CD28 antibody for 24 hours at which point cell free supernatants were collected and assessed for cytokines (e.g., IFNγ) by ELISA (R&D Systems or Peprotech) or Luminex multiplex kits (Procarta Life Technologies) following manufacturer's protocols.
Cbl-b inhibitors were tested to determine their ability to induce or enhance secretion of cytokines from anergic T-cells (e.g. IFNγ), which is indicative of decreased T-cell tolerance.
Readouts were reported as fold change over baseline. Baseline for this study was the measurement obtained from anergic human T-cells stimulated with immobilized anti-CD3 and soluble anti-CD28, wherein the T-cells were not incubated with a Cbl-b inhibitor (Table 7). For IFNγ changes greater than 2.5-fold over baseline were considered a positive response (Table 7). Compounds were ranked into bins according to their readout as follows for IFNγ: A indicates ≤2.50, B indicates 2.51-4.00 and C indicates >4.01.

The test system of experiment [1] is T-cell. The experiment in a line: CD25 cell surface staining on T-cells stimulated with anti-CD3 antibody alone (Biological Example 2). The note with it: primary human total T-cells, baseline = anti-CD3/anti-CD28 stimulated cells without inhibitor, read-out: CD25 staining, Anti-CD3 stimulation, fold change over baseline; for fold induction at 1 µM: 1 μM compound; for fold induction at 8 µM: 8 μM compound.

The test system of experiment [2] is T-cell. The experiment is described as follows: IL-2 secretion from T-cells stimulated with anti-CD3 antibody alone (Biological Example 2). Conditions: primary human total T-cells, read-out: IL-2 secretion, Anti-CD3 stimulation, fold change over baseline; for fold induction at 1 µM: 1 μM compound; for fold induction at 8 µM: 8 μM compound.

Structures are written as SMILES. Bounds are passed on as bounds.

As for `C[C@H](Cc1nncn1C)c1cccc(N2Cc3c(cc(CN4CC[C@](C)(O)C4)cc3C(F)(F)F)C2=O)c1` [Compound 398, 6-(((S)-3-hydroxy-3-methylpyrrolidin-1-yl)methyl)-2-(3-((R)-1-(4-methyl-4H-1,2,4-triazol-3-yl)propan-2-yl)phenyl)-4-(trifluoromethyl)isoindolin-1-one], in the experiment on primary human B cells, the “CD69 MFI AUC” value was “B (B indicates 0.5-1.00)”. In addition, in the experiment on anergic human T-cells, the fold induction at 0.37 µM was ≤ 2.5, the fold induction at 1.11 µM was > 4.01 and the fold induction at 10 µM is > 4.01. For the same compound, in the experiment on T-cell [1], the fold induction at 1 µM is > 1 and the fold induction at 8 µM is > 1. Moreover, in the experiment on T-cell [2], the fold induction at 1 µM was 0.101 to 0.15 and the fold induction at 8 µM is > 0.201.

On to `C[C@H](Cc1nncn1C)c1cccc(N2Cc3c(cc(CN4CC[C@H](F)C4)cc3C(F)(F)F)C2=O)c1` [Compound 399, 6-(((S)-3-fluoropyrrolidin-1-yl)methyl)-2-(3-((R)-1-(4-methyl-4H-1,2,4-triazol-3-yl)propan-2-yl)phenyl)-4-(trifluoromethyl)isoindolin-1-one], for which, in the experiment on primary human B cells, the “CD69 MFI AUC” value was “C (C indicates 1.01-1.50)”. In the experiment with anergic human T-cells, the fold induction at 0.37 µM was > 4.01, the fold induction at 1.11 µM is > 4.01 and the fold induction at 10 µM is > 4.01. In the experiment on T-cell [1], the fold induction at 1 µM is > 1 and the fold induction at 8 µM was > 1. In the experiment with T-cell [2], the fold induction at 1 µM is 0.151 to 0.2 and the fold induction at 8 µM was > 0.201.

`C[C@@H](c1cc2c(c(C(F)(F)F)c1)CN(c1cccc(C3(Cc4nncn4C)COC3)c1)C2=O)N1CC[C@H](F)C1` [Compound 412, 6-((S)-1-((S)-3-fluoropyrrolidin-1-yl)ethyl)-2-(3-(3-((4-methyl-4H-1,2,4-triazol-3-yl)methyl)oxetan-3-yl)phenyl)-4-(trifluoromethyl)isoindolin-1-one]: the “CD69 MFI AUC” value in the experiment with primary human B cells is listed as “D (D indicates ≥1.51)”. In the experiment with anergic human T-cells, the fold induction at 0.37 µM is ≤ 2.5, the fold induction at 1.11 µM is > 4.01 and the fold induction at 10 µM was > 4.01. Also, in the experiment with T-cell [1], the fold induction at 1 µM was > 1 and the fold induction at 8 µM is > 1. In the experiment with T-cell [2], the fold induction at 1 µM was > 0.201 and the fold induction at 8 µM was > 0.201.

Take `C[C@H](c1cc2c(c(C(F)(F)F)c1)CN(c1cccc(C3(Cc4nncn4C)COC3)c1)C2=O)N1CC[C@H](F)C1` [Compound 413, 6-((R)-1-((S)-3-fluoropyrrolidin-1-yl)ethyl)-2-(3-(3-((4-methyl-4H-1,2,4-triazol-3-yl)methyl)oxetan-3-yl)phenyl)-4-(trifluoromethyl)isoindolin-1-one]: the “CD69 MFI AUC” value with primary human B cells was “C (C indicates 1.01-1.50)”. Further, in the experiment with anergic human T-cells, the fold induction at 0.37 µM was 2.51 to 4, the fold induction at 1.11 µM was > 4.01 and the fold induction at 10 µM is > 4.01. Moreover, in the experiment with T-cell [1], the fold induction at 1 µM is > 1 and the fold induction at 8 µM is > 1. Besides, in the experiment on T-cell [2], the fold induction at 1 µM was > 0.201 and the fold induction at 8 µM is > 0.201.

`Cn1cnnc1CC1(c2cccc(N3Cc4c(cc(CN5CC(F)C5)cc4C(F)(F)F)C3=O)c2)COC1` [Compound 415, 6-((3-fluoroazetidin-1-yl)methyl)-2-(3-(3-((4-methyl-4H-1,2,4-triazol-3-yl)methyl)oxetan-3-yl)phenyl)-4-(trifluoromethyl)isoindolin-1-one]: in the experiment with primary human B cells, the “CD69 MFI AUC” value was “C (C indicates 1.01-1.50)”. Further, in the experiment on anergic human T-cells, the fold induction at 0.37 µM is 2.51 to 4, the fold induction at 1.11 µM was in the range of 2.51 to 4 and the fold induction at 10 µM is > 4.01. In addition, in the experiment with T-cell [1], the fold induction at 1 µM was > 1 and the fold induction at 8 µM is > 1. In the experiment on T-cell [2], the fold induction at 1 µM was 0.151 to 0.2 and the fold induction at 8 µM was > 0.201.

On to `Cn1cnnc1CC1(c2cccc(N3Cc4c(cc(CN5CC[C@H](C#N)C5)cc4C(F)(F)F)C3=O)c2)COC1` [Compound 422, (S)-1-((2-(3-(3-((4-methyl-4H-1,2,4-triazol-3-yl)methyl)oxetan-3-yl)phenyl)-3-oxo-7-(trifluoromethyl)isoindolin-5-yl)methyl)pyrrolidine-3-carbonitrile], for which, in the experiment on primary human B cells, the “CD69 MFI AUC” value is recorded as “C (C indicates 1.01-1.50)”. In the experiment with anergic human T-cells, the fold induction at 0.37 µM is ≤ 2.5, the fold induction at 1.11 µM lay within 2.51 to 4 and the fold induction at 10 µM lay in the range of 2.51 to 4. In the experiment on T-cell [1], the fold induction at 1 µM is > 1 and the fold induction at 8 µM is > 1. In the experiment with T-cell [2], the fold induction at 1 µM is > 0.201 and the fold induction at 8 µM is > 0.201.

`Cn1cnnc1C(F)(F)[C@](C)(F)c1cccc(N2Cc3c(cc(C(=O)N4CC[C@H](O)C4)cc3C(F)(F)F)C2=O)c1` [Compound 438, 6-((S)-3-hydroxypyrrolidine-1-carbonyl)-2-(3-((R)-1,1,2-trifluoro-1-(4-methyl-4H-1,2,4-triazol-3-yl)propan-2-yl)phenyl)-4-(trifluoromethyl)isoindolin-1-one]: the “CD69 MFI AUC” value in the experiment with primary human B cells is given as “A (A indicates ≤0.5)”. Further, in the experiment with anergic human T-cells, the fold induction at 0.37 µM is ≤ 2.5, the fold induction at 1.11 µM was ≤ 2.5 and the fold induction at 10 µM was > 4.01. In addition, in the experiment with T-cell [1], the fold induction at 1 µM lay in the range of 0.801 to 1 and the fold induction at 8 µM is > 1. Also, in the experiment with T-cell [2], the fold induction at 1 µM was in the range of 0.101 to 0.15 and the fold induction at 8 µM is > 0.201.

Regarding `Cn1cnnc1C(F)(F)[C@](C)(F)c1cccc(N2Cc3c(cc(N4CCNCC4)cc3C(F)(F)F)C2=O)c1` [Compound 442, (R)-6-(Piperazin-1-yl)-2-(3-(1,1,2-trifluoro-1-(4-methyl-4H-1,2,4-triazol-3-yl)propan-2-yl)phenyl)-4-(trifluoromethyl)isoindolin-1-one], the “CD69 MFI AUC” value in the experiment on primary human B cells is listed as “B (B indicates 0.5-1.00)”. Also, in the experiment on anergic human T-cells, the fold induction at 0.37 µM is ≤ 2.5, the fold induction at 1.11 µM lay within 2.51 to 4 and the fold induction at 10 µM lay within 2.51 to 4. In the experiment on T-cell [1], the fold induction at 1 µM is > 1 and the fold induction at 8 µM is 0.801 to 1. Moreover, in the experiment with T-cell [2], the fold induction at 1 µM is > 0.201 and the fold induction at 8 µM fell in the range of 0.051 to 0.1.

In the case of `Cn1cnnc1C(F)(F)[C@](C)(F)c1cccc(N2Cc3c(cc(CN4CC[C@@H](F)C4)cc3C(F)(F)F)C2=O)c1` [Compound 450], in the experiment on primary human B cells, the “CD69 MFI AUC” value is reported as “C (C indicates 1.01-1.50)”. Also, in the experiment with anergic human T-cells, the fold induction at 0.37 µM fell in the range of 2.51 to 4, the fold induction at 1.11 µM fell in the range of 2.51 to 4 and the fold induction at 10 µM was > 4.01. In the experiment on T-cell [1], the fold induction at 1 µM was > 1 and the fold induction at 8 µM was > 1. Moreover, in the experiment on T-cell [2], the fold induction at 1 µM is > 0.201 and the fold induction at 8 µM was > 0.201.

Turning to `COC1CN(Cc2cc3c(c(C(F)(F)F)c2)CN(c2cccc([C@@](C)(F)C(F)(F)c4nncn4C)c2)C3=O)C1` [Compound 452, (R)-6-((3-methoxyazetidin-1-yl)methyl)-2-(3-(1,1,2-trifluoro-1-(4-methyl-4H-1,2,4-triazol-3-yl)propan-2-yl)phenyl)-4-(trifluoromethyl)isoindolin-1-one], the “CD69 MFI AUC” value in the experiment with primary human B cells was “D (D indicates ≥1.51)”. Besides, in the experiment on anergic human T-cells, the fold induction at 0.37 µM is ≤ 2.5, the fold induction at 1.11 µM was in the range of 2.51 to 4 and the fold induction at 10 µM is > 4.01. Further, in the experiment on T-cell [1], the fold induction at 1 µM is > 1 and the fold induction at 8 µM is > 1. In the experiment on T-cell [2], the fold induction at 1 µM lay in the range of 0.151 to 0.2 and the fold induction at 8 µM was > 0.201.
